Tests used:
pressor action of AII = experiment: Inhibitory effect on pressor action of AII in rats after oral administration; assay type: in vivo, Jcl:SD rats; conditions: 1 mg/kg p.o., percent inhibition of pressor action of AII 100 ng/kg i.v.
Description: Jcl:SD rats (9 week old, male) were used. On the previous day of the experiment, these animals were applied with cannulation into the femoral artery and vein under anesthesia with pentobarbital Na. These animals were fasted but allowed to access freely to drinking water until the experiment was started. Just on the day of conducting the experiment, the artery cannula was connected with a blood-pressure transducer, and the average blood pressure was recorded by means of polygraph. Before administration of the drug, the pressor action due to intravenous administration of AII (100 ng/kg) as the control was determined. The drugs were orally administered, then, at each point of the determination, AII was administered intravenously, and the pressor action was similarly determined. By comparing the pressor action before and after administration of the drug, the percent inhibition by the drug was evaluated.

AII receptor = biological target: T1, AII receptor (Bos taurus, UniProt P25104); experiment: Inhibition of binding of 125I-angiotensin II to AII receptor membrane fraction; conditions: bovine adrenal cortex membrane fraction, 125I-AII, read-out: Binding-inhibitory action (rate) %; for inhibition at 1 µM: compound 10^-6 M; for inhibition at 0.1 µM: compound 10^-7 M
T1 construct: An AII receptor membrane fraction was prepared from bovine adrenal cortex; from tissue; host or cells: bovine adrenal cortex, membrane fraction
T1 sequence (P25104 1-359): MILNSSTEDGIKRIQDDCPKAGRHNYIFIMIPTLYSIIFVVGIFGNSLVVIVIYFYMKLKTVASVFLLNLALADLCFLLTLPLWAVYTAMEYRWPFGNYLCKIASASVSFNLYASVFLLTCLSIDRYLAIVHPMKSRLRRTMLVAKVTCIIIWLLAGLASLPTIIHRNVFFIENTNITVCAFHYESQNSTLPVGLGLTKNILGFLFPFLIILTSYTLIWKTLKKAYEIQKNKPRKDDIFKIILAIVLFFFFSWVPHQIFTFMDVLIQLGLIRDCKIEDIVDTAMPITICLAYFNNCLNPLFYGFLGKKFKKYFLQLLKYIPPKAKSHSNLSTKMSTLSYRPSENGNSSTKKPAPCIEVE
Description: An experiment of inhibition on the binding of angiotensin II (AII) to AII receptor was conducted by modifying the method of Douglas et al. [Endocrinology, 102, 685-696 (1978)]. An AII receptor membrane fraction was prepared from bovine adrenal cortex.
The compound of the present invention (10^-6 M or 10^-7 M) and ^125 I-angiotensin II (^125 I-AII) (2.44kBq/50 μl) were added to the receptor membrane fraction, and the mixture was incubated at room temperature for one hour. The receptor-bound and free ^125 I-AII were separated through a filter (Whatman GF/B filter), and the radioactivity of ^125 I-AII bound to the receptor was determined.

| inhibition at 1 µM (AII receptor) [%] | inhibition at 0.1 µM (AII receptor) [%] | Compound | Pressor-inhibitory action (pressor action of AII) |
| --- | --- | --- | --- |
| 68 | 30 | CCCCc1n[nH]c(C(=O)O)c1Cc1ccc(-c2ccccc2-c2nc(=O)o[nH]2)cc1 [Working Example 2, 3-Butyl-4-[2'-(2,5-dihydro-5-oxo-1,2,4-oxadiazol-3-yl)biphenyl-4-yl]methylpyrazole-5-carboxylic acid] | + (50% > +-) |
| 17 | 7 | CCCCc1n[nH]c(C(=O)OC)c1Cc1ccc(-c2ccccc2-c2nsc(=O)[nH]2)cc1 [compound 3] | +++ (+++ ≥ 70%) |
| 37 | – | CCCCc1nn(-c2ccccc2Cl)c(C(=O)O)c1Cc1ccc(-c2ccccc2-c2nsc(=O)[nH]2)cc1 [compound 8] | +++ (+++ ≥ 70%) |
| 32 | – | CCCCc1nn(-c2ccccc2Cl)c(C(=O)O)c1Cc1ccc(-c2ccccc2-c2noc(=O)[nH]2)cc1 [compound 6] | ++ (70% > ++ ≥ 50%) |

Reference: patent US5496835A, “Heterocyclic compounds having angiotensin II antagonistic activity and use thereof” (Takeda Chemical Industries, Ltd., priority 1992, dated 1996)
